Measured values published in BigSolDB 2.1.

Details: in ethanol

| solubility (mole fraction) (298.15 K) | solubility (mole fraction) (303.15 K) | solubility (mole fraction) (308.15 K) | solubility (mole fraction) (313.15 K) | solubility (mole fraction) (318.15 K) | Compound |
| --- | --- | --- | --- | --- | --- |
| 0.00334 | 0.00342 | 0.004 | 0.00441 | 0.00519 | Nc1cc(N)cc(C(=O)O)c1 |
| 0.00493 | 0.00607 | 0.00746 | 0.00934 | 0.0116 | COc1cc(OC)cc(C(=O)O)c1 |
| 0.0214 | 0.0266 | 0.0331 | 0.0353 | 0.044 | N#Cc1ccc(C(=O)O)cc1 |
| 0.0581 | 0.0693 | 0.0817 | 0.0953 | 0.118 | O=C(O)c1ccc(Cl)cc1Cl |
| 0.0249 | 0.0302 | 0.0358 | 0.0432 | 0.0522 | CC(=O)Oc1ccc(C(=O)O)cc1 |
